From US20120245186A1, “COMBINATION CANCER THERAPY WITH HSP90 INHIBITORY COMPOUNDS” (SYNTA PHARMACEUTICALS CORP., priority 2009, published 2012) come the findings set out here.

Where two headings read alike, the source gives them in different places.

Assay [1] relates to HCC827 human non-small cell lung cancer (NSCLC) cells. It is filed as in vivo. To be noted: day 40, SCID mice. The text has this:
(§1) Animals were housed 4-5/cage in micro-isolators, with a 12 hr/12 hr light/dark cycle, acclimated for at least 1 week prior to use and fed normal laboratory chow ad libitum.

Assay [2] relates to H1975 cells. In words: Single agent IC50 in H1975 cells, alamarBlue viability (Example 2). It is filed as cell-based, human. Particulars: XLFit. The method, then: After 72 h exposure to either drug, viability was determined by alamarBlue, data from which was used to calculate the IC50 values using XLFit software (ID Business Solutions).
On the technique in general: Resazurin is reduced to fluorescent resorufin, in cell work by metabolically active cells.

Assay [3] relates to HEL92.1.7 erythroleukemia cells. The experiment in a line: Single agent IC50, alamarBlue cell viability (Example 3), HEL92.1.7. The format is cell-based, human. Particulars: XLFit. The method, then: (§2) Cell viability was measured using the alamarBlue assay. In brief, cells were plated in 96-well plates in triplicate at 2000 cells per well (H1975) or 5000 cells per well (HEL92.1.7) and incubated at 37° C., 5% CO2 atmosphere for 24 hr prior to the addition of drug or vehicle (0.3% DMSO) to the culture medium. After 72 hr, 10 μl/well alamarBlue was added to the wells and incubated for an additional 3 hr at 37° C., 5% CO2 atmosphere. Fluorescence (560EX/590EM […]) was measured with a SpectraMax microplate reader (Molecular Devices) and the resulting data were used to calculate cell viability, normalized to vehicle control. […] After 72 hr exposure to drug, cell viability was measured.

The test system of assay [4] is HT29 colon cancer cells. In words: Single agent IC50, alamarBlue cell viability (Example 3), HT29. The format is cell-based, human. To be noted: XLFit.
Assay [5] relates to NCI-H1975 non-small cell lung carcinoma cells. The experiment in a line: Single agent IC50, alamarBlue cell viability (Example 3), NCI-H1975. The format is cell-based, human. To be noted: XLFit. The procedure:
as §2

Assay [6] has as its system human NSCLC cell line NCI-H1975. It is filed as in vivo. To be noted: 3 doses, day 32, SCID mice. The method, then: FBS was obtained from ATCC and all other reagents were obtained from Invitrogen Corp. (Carlsbad, Calif., USA). Cells that had been cryopreserved in liquid nitrogen were rapidly thawed at 37° C. and transferred to a tissue culture flask containing growth media and then incubated at 37° C. in a 5% CO2 incubator. […] To inactivate the trypsin, 5 mL of growth media was added and then the contents of the flask were centrifuged to pellet the cells. The supernatant was aspirated and the cell pellet was resuspended in 10 mL of growth media and the cell number determined using a hemocytometer. Cells were seeded into 175 cm^2 flasks containing 50 mL of growth media and incubated at 37° C. in a 5% CO2 incubator.
as §1

[7] abbreviates: 72 hr exposure, read-out: Single agent IC50 values, HEL-92.1.7.

Turning to `CC(C)c1cc(-c2nnc(O)n2-c2ccc3c(ccn3C)c2)c(O)cc1O` [Compound 1, 3-(2,4-dihydroxy-5-isopropyl-phenyl)-4-(1-methyl-indol-5-yl)-5-hydroxy-[1,2,4] triazole], the “% T/C value” in assay [1] (Compound 1 75 mg/kg 1×/week) came out at 26%; in assay [6] (Compound 1 50 mg/kg i.v. 1 time per week), 55%. Besides, the IC50 (as a rule, the midpoint of a concentration-inhibition curve) in assay [2] (Homo sapiens, NCI-H1975, 72 h exposure) stood at 15 nM; in assay [3] (Homo sapiens, HEL 92.1.7, 72 hr exposure), 32 nM; in assay [4] (Homo sapiens, HT-29, 72 hr exposure), 36 nM; in assay [5] (Homo sapiens, NCI-H1975, 72 hr exposure) it was 13 nM.

For the compound `CC(=O)O[C@@]12CO[C@@H]1C[C@H](O)[C@@]1(C)C(=O)[C@H](O)C3=C(C)[C@@H](OC(=O)[C@H](O)[C@@H](NC(=O)OC(C)(C)C)c4ccccc4)C[C@@](O)([C@@H](OC(=O)c4ccccc4)[C@H]21)C3(C)C` [docetaxel], the “% T/C value” in assay [1] (docetaxel 4 mg/kg 1×/week) came to 46%. Also, the half-inhibitory concentration (IC50) in assay [3] (setting [7]) amounted to 14 nM; in assay [4] (72 hr exposure), 0.6 nM; in assay [5] (72 hr exposure), 1 nM.

For the compound `CC(=O)O[C@H]1C(=O)[C@@]2(C)[C@H]([C@H](OC(=O)c3ccccc3)[C@]3(O)C[C@H](OC(=O)[C@H](O)[C@@H](NC(=O)c4ccccc4)c4ccccc4)C(C)=C1C3(C)C)[C@]1(OC(C)=O)CO[C@@H]1C[C@@H]2O` [paclitaxel], the half-inhibitory concentration (IC50) in assay [2] (72 h exposure) worked out at 7 nM; in assay [3] (setting [7]) it was 25 nM; in assay [5] (72 hr exposure), 4 nM. In addition, the “% T/C value” in assay [6] (paclitaxel 7.5 mg/kg i.v. 1 time per week) is given as 38%.
